Assay results from PMC8037503, “Methiothepin Increases Chemotherapy Efficacy against Resistant Melanoma Cells” (Molecules, 2021).

Target: T1, Ptch1 (Homo sapiens, UniProt Q13635)
T1 construct: human Ptch1 with C-terminal His-tag, DDM-solubilized from yeast membranes
T1 sequence (Q13635 1-1447): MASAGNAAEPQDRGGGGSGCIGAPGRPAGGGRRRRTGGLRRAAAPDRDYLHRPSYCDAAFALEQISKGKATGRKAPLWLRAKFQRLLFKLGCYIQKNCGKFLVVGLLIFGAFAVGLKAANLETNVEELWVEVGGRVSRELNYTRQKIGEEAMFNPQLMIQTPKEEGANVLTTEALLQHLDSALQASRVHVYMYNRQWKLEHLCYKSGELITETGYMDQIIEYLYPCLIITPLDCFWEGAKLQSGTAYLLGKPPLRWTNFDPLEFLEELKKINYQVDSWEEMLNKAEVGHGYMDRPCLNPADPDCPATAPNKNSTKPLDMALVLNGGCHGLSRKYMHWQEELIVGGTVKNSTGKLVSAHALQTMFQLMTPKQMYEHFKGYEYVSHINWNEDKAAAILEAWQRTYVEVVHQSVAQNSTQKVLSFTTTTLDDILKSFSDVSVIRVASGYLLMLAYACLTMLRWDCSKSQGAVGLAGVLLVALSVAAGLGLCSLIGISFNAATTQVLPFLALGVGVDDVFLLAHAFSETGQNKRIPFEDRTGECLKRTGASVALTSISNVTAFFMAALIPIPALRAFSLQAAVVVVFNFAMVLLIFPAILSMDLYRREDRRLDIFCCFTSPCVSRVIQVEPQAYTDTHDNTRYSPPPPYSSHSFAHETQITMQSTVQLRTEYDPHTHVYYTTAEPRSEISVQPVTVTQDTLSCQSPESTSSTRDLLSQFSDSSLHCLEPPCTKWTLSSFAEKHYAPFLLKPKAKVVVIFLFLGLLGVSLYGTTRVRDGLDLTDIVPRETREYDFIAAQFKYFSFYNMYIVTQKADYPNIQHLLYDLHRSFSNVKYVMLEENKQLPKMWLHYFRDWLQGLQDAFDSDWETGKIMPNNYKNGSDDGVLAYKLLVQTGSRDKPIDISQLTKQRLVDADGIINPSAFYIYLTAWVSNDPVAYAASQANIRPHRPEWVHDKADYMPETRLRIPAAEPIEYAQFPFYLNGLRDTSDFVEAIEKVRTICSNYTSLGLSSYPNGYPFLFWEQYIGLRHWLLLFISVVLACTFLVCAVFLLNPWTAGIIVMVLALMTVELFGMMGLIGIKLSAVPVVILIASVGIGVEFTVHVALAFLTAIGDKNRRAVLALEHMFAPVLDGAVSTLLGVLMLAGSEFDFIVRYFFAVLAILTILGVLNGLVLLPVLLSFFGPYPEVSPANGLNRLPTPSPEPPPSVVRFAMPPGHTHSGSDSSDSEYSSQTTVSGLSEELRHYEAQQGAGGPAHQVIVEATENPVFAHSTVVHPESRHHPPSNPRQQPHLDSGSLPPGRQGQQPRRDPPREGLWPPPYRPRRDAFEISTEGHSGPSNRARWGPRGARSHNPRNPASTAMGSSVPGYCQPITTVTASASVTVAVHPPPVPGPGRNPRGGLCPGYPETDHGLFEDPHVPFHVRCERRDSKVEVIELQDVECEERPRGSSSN
Assay: microscale thermophoresis on DDM-solubilized membranes from yeast expressing human Ptch1 (His-tag labelled)
Format: binding

- Kd: ~7 µM
Compound: CSc1ccc2c(c1)C(N1CCN(C)CC1)Cc1ccccc1S2 (stereo not shown) [P375, methiothepin]
